# Laboratory results reported in BindingDB's records for PubMed 22084396 (Genentech, Inc and Exelixis).
# Assays:
# [1] = biological target: Serine/threonine-protein kinase 4, STK4/MST1 (Homo sapiens) (UniProt Q13043); test: Inhibition of MST1 (unknown origin)
# [2] = biological target: 3-phosphoinositide-dependent protein kinase 1, PDPK1 (Homo sapiens) (UniProt O15530); test: Inhibition of PDK1 (unknown origin)
# Chain of 3-phosphoinositide-dependent protein kinase 1, PDPK1 (Homo sapiens) (O15530 whole entry, looked up): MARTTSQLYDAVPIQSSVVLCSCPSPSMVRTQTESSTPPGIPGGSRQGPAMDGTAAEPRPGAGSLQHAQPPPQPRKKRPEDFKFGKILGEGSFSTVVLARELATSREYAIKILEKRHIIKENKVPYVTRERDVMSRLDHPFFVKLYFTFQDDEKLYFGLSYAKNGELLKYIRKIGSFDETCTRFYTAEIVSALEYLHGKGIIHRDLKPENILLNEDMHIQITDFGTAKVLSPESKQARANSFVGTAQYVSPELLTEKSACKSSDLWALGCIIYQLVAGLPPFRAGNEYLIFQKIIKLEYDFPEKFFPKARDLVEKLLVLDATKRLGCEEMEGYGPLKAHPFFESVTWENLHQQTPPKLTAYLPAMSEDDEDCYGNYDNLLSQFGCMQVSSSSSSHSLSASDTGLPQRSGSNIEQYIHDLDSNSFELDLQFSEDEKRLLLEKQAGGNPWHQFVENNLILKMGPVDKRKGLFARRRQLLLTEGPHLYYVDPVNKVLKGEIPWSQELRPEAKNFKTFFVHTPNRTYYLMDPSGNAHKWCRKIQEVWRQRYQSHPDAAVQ
# Chain of Serine/threonine-protein kinase 4, STK4/MST1 (Homo sapiens) (Q13043 whole entry, looked up): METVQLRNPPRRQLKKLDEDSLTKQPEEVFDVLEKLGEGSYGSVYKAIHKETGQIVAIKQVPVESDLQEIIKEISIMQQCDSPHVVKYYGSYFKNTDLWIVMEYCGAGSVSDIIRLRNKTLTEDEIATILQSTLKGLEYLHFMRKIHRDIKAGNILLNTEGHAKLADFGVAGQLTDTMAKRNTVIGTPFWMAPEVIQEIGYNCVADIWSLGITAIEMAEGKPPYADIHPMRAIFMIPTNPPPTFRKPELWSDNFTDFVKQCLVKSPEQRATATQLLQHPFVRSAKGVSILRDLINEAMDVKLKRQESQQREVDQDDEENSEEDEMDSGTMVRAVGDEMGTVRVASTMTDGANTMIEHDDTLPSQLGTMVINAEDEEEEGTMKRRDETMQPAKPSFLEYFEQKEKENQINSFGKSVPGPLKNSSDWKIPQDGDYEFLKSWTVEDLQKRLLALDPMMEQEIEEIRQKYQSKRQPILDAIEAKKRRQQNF
smiles,measurement,setting,value
O=C(c1ccc(F)c(F)c1Nc1ccc(I)cc1F)N1CC(O)([C@@H]2CCCCN2)C1,IC50,[1],> 10 µM
same,IC50,[2],> 10 µM
